Values of other authors in patent publication US9758831B2, “Methods of predicting clinical course and treating multiple sclerosis” (Tel HaShomer Medical Research Infrastructure and Services …, priority 2009, dated 2017).

Key:
[1] = system: Experimental Autoimmune Encephalomyelitis; conditions: in vivo
RRN3/rpa43 complex = conditions: in vivo

Structure (SMILES) | T-cell inflammatory responses [1] | effect on Experimental Autoimmune Encephalomyelitis [1] | IFNγ production (T lymphocyte) | T cell apoptosis (T lymphocyte) | lymphocyte proliferation (T lymphocyte) | IL2 and IL2 receptor expression (T lymphocyte; activated T cells) | maturation, antigen processing and presentation of dendritic cells (dendritic cells) | TNF-a and IL-6 production (activated macrophages) | association of RRN3 with RNA polymerase I (RRN3) | phosphorylation of RRN3 (RRN3) | formation of RRN3/rpa43 complex (RRN3/rpa43 complex)
CC(C)[C@]12O[C@H]1[C@@H]1O[C@]13[C@]1(O[C@H]1C[C@H]1C4=C(CC[C@@]13C)C(=O)OC4)[C@@H]2O [Triptolide, Trisoxireno(4b,5:6,7:8a,9)phenanthro(1,2-c)furan-1(3H)-one, 3b,4,4a,6,6a,7a,7b,8b,9,10-decahydro-6-hydroxy-8b-methyl-6a-(1-methylethyl)-, (3bS,4aS,5aS,6R,6aR,7aS,7bS,8aS,8bS)-] | modulates T-cell inflammatory responses | ameliorates Experimental Autoimmune Encephalomyelitis | inhibition | T cell apoptosis induction | inhibition of lymphocyte prolipheration | decreased | can inhibit | can suppress |  |  | 
C[C@@H]1C[C@@H]([C@H](O)CC2CC(=O)NC(=O)C2)C(=O)[C@@H](C)C1 [Cycloheximide] |  |  |  |  |  |  |  |  | causes its dissociation from RNA polymerase I | inhibits the phosphorylation of RRN3 | inhibits the formation of a RRN3/rpa43 complex in vivo
